Here are results for two compounds from ChEMBL document CHEMBL2424566, “Preparation of betulinic acid derivatives by chemical and biotransformation methods and determination of cytotoxicity against selected cancer cell lines” (Eur J Med Chem, 2013).

The nature of assay [1]: Selectivity index, ratio of IC50 for human CCD-18Co cells to IC50 for human 8505C cells. In kind it is functional, 8505C;CCD-18Co.
The subject of assay [2] is 8505C. Description: Cytotoxicity against human 8505C cells assessed as cell viability after 96 hrs by SRB assay. Format: functional, cell-based.
In assay [3] the test system is A549. Nature of the assay: Selectivity index, ratio of IC50 for human CCD-18Co cells to IC50 for human A549 cells. In kind it is functional.
A short description of assay [4]: Cytotoxicity against human 518A2 cells assessed as cell viability after 96 hrs by SRB assay. Format: functional, cell-based. To be noted: 518A2, 96 h. Background: In SRB staining, fixed cells bind dye roughly in proportion to their protein.
Assay [5] concerns A549. Nature of the assay: Induction of apoptosis in human A549 cells assessed as early apoptosis and secondary necrosis at IC80 after 48 hrs by annexin V-FITC staining-based flow cytometric analysis relative to control. In kind it is functional. On the technique in general: Flow cytometry measures light scatter and fluorescence of single cells or particles in a stream.
Assay [6] is described as follows: Cytotoxicity against human CCD-18Co cells assessed as cell viability after 96 hrs by SRB assay. Format: cell-based.
The subject of assay [7] is A549. Nature of the assay: Cell cycle arrest in human A549 cells assessed as accumulation at G0/G1 phase at IC80 after 24 hrs by propidium iodide staining-based flow cytometric analysis (49.5 +/- 2.51%). In kind it is functional.
The subject of assay [8] is A549. Nature of the assay: Cell cycle arrest in human A549 cells assessed as accumulation at S phase at IC80 after 48 hrs by propidium iodide staining-based flow cytometric analysis (19.1 +/- 1.05%). In kind it is functional.
Assay [9] deals with A549. Nature of the assay: Induction of apoptosis in human A549 cells assessed as occurrence of typical DNA ladders at IC80 after 72 hrs by agarose gel electrophoresis. In kind it is functional, cell-based.
Assay [10] has as its system A549. Nature of the assay: Induction of apoptosis in human A549 cells assessed as DNA fragmentation at IC80 after 24 hrs by acridine orange/ethidium bromide staining-based fluorescence microscopic analysis. Format: functional, cell-based.
The subject of assay [11] is A549. Description: Cell cycle arrest in human A549 cells assessed as accumulation at subG1 phase at IC80 after 48 hrs by propidium iodide staining-based flow cytometric analysis (3.23 +/- 0.25%). In kind it is functional.
The nature of assay [12]: Selectivity index, ratio of IC50 for human CCD-18Co cells to IC50 for human 518A2 cells. In kind it is functional.
For assay [13], the system named is A549. Description: Cell cycle arrest in human A549 cells assessed as accumulation at G0/G1 phase at IC80 by propidium iodide staining-based flow cytometric analysis. In kind it is functional. The note with it: TDE = time-dependent effect.
For assay [14], the system named is A549. Description: Cytotoxicity against human A549 cells assessed as cell viability after 96 hrs by SRB assay. In kind it is functional, cell-based. The note with it: A549, 96 h.
For assay [15], the system named is A549. Description: Cell cycle arrest in human A549 cells assessed as accumulation at subG1 phase at IC80 after 24 hrs by propidium iodide staining-based flow cytometric analysis (2.73 +/- 0.49%). Format: functional.
Assay [16] deals with A549. Description: Cell cycle arrest in human A549 cells assessed as accumulation at S phase at IC80 by propidium iodide staining-based flow cytometric analysis. Format: functional. The note with it: TDE = time-dependent effect.
Assay [17] deals with MCF7. Nature of the assay: Cytotoxicity against human MCF7 cells assessed as cell viability after 96 hrs by SRB assay. Format: functional, cell-based. To be noted: MCF7, 96 h.
For assay [18], the system named is A549. Description: Induction of apoptosis in human A549 cells assessed as membrane blebbing at IC80 after 24 hrs by acridine orange/ethidium bromide staining-based fluorescence microscopic analysis. Format: functional, cell-based.
In assay [19] the test system is A549. Nature of the assay: Induction of apoptosis in human A549 cells assessed as chromatin condensation at IC80 after 24 hrs by acridine orange/ethidium bromide staining-based fluorescence microscopic analysis. Format: functional, cell-based.
Assay [20] deals with MCF7. Description: Selectivity index, ratio of IC50 for human CCD-18Co cells to IC50 for human MCF7 cells. In kind it is functional.
The subject of assay [21] is A549. Nature of the assay: Cell cycle arrest in human A549 cells assessed as accumulation at G2/M phase at IC80 after 48 hrs by propidium iodide staining-based flow cytometric analysis (26 +/- 1.1%). Format: functional.
Assay [22] concerns A549. Description: Induction of apoptosis in human A549 cells assessed as apoptotic bodies at IC80 after 24 hrs by acridine orange/ethidium bromide staining-based fluorescence microscopic analysis. Format: functional, cell-based.
Assay [23] deals with A549. Description: Cell cycle arrest in human A549 cells assessed as accumulation at G2/M phase at IC80 after 24 hrs by propidium iodide staining-based flow cytometric analysis (24.9 +/- 1.46%). In kind it is functional.
For assay [24], the system named is A549. Nature of the assay: Cell cycle arrest in human A549 cells assessed as accumulation at G2/M phase at IC80 by propidium iodide staining-based flow cytometric analysis. In kind it is functional. The note with it: TDE = time-dependent effect.
The subject of assay [25] is A549. Description: Induction of apoptosis in human A549 cells assessed as early apoptosis and secondary necrosis at IC80 after 24 hrs by annexin V-FITC staining-based flow cytometric analysis relative to control. Format: functional.
In assay [26] the test system is A549. Description: Cell cycle arrest in human A549 cells assessed as accumulation at subG1 phase at IC80 by propidium iodide staining-based flow cytometric analysis. Format: functional. The note with it: TDE = time-dependent effect.
Assay [27] deals with A549. Nature of the assay: Cell cycle arrest in human A549 cells assessed as accumulation at S phase at IC80 after 24 hrs by propidium iodide staining-based flow cytometric analysis (20.2 +/- 0.81%). Format: functional.
The subject of assay [28] is A2780. Description: Selectivity index, ratio of IC50 for human CCD-18Co cells to IC50 for human A2780 cells. Format: functional.
The subject of assay [29] is A549. Description: Cell cycle arrest in human A549 cells assessed as accumulation at G0/G1 phase at IC80 after 48 hrs by propidium iodide staining-based flow cytometric analysis (48.5 +/- 1.82%). Format: functional.
Assay [30] concerns A2780. Nature of the assay: Cytotoxicity against human A2780 cells assessed as cell viability after 96 hrs by SRB assay. Format: functional, cell-based. To be noted: A2780, 96 h.

Activity calls are given as the source filed them. No cut-off for these calls is given here.

`C[C@@H](C=O)[C@@H]1CC[C@]2(C(=O)O)CC[C@]3(C)[C@H](CC[C@@H]4[C@@]5(C)CC/C(=N\Nc6ccc([N+](=O)[O-])cc6[N+](=O)[O-])C(C)(C)[C@@H]5CC[C@]43C)[C@@H]12`: the “Ratio IC50” value in assay [1], in [3], in [12], in assay [20] and in assay [28] was 3 each time. The IC50 – broadly, the concentration that inhibits the measured activity by half – in assay [2] was determined as 2.44 µM; in assay [4] it was 1.91 µM; in assay [6] it was 8.3 µM; in assay [14], 1.79 µM; in assay [17] it was 2.51 µM; in assay [30], 1.76 µM. For the same compound, the Activity in [5] is 8%; in assay [7], 60.9%; in [8], 14.6%; in assay [11], 18.3%; in assay [13], “tde”; in assay [15], 8.77%. Further, the Activity result in assay [16] was “tde”; in assay [21], 15.9%; in [23] it was 13.9%; in [24] it was “tde”; in [25], 12%; in assay [26], “tde”. In addition, the Activity in [27] stood at 14.8%; in [29], 49.7%. The outcome in [9], in [10], in assay [18], in assay [19] and in [22] was Active.
As for `C/C(=N\Nc1ccc([N+](=O)[O-])cc1[N+](=O)[O-])[C@@H]1CC[C@]2(C(=O)O)CC[C@]3(C)[C@H](CC[C@@H]4[C@@]5(C)CC[C@H](O)C(C)(C)[C@@H]5CC[C@]43C)[C@@H]12`, the “Ratio IC50” value in assay [1], in assay [3], in [12], in [20] and in [28] was 5 each time. In addition, the IC50 came to 8.72 µM in assay [2]; 9.09 µM in assay [4]; 56.7 µM in assay [6]; 7.62 µM in [14]; 6.84 µM in [17]; 11.3 µM in [30]. Further, the result in assay [10], in assay [18], in [19] and in assay [22] was Active.
